Data: ChEMBL document CHEMBL1201862, “PubChem BioAssay data set” (2004)
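Five compound concentrations were applied to cells in 96-well plates for 48 hours; endpoints were derived by simple linear interpolation of the resulting dose-response curve. At the GI50, growth is halved.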 The source made the active and inactive calls. Rule as the data show it: active = GI50 up to about 1.1 µM and inactive = higher.

How the values were obtained:
Test in all cases: NCI tumour cell line growth inhibition, 48 h
T47D = test system: T47D
OVCAR-4 = test system: OVCAR-4
ACHN = test system: ACHN
SW-620 = test system: SW-620
SF-295 = test system: SF-295
SN12C = test system: SN12C
BT-549 = test system: BT-549
TK-10 = test system: TK-10
SR = test system: SR
UACC-62 = test system: UACC-62
KM12 = test system: KM12
U-251 = test system: U-251
MCF7 = test system: MCF7
NCI/ADR-RES = test system: NCI/ADR-RES
MDA-MB-435 = test system: MDA-MB-435
HCC 2998 = test system: HCC 2998
EKVX = test system: EKVX
HOP-92 = test system: HOP-92
A549 = test system: A549
NCI-H522 = test system: NCI-H522

Structure (SMILES) | GI50 (T47D) | GI50 (OVCAR-4) | GI50 (ACHN) | GI50 (SW-620) | GI50 (SF-295) | GI50 (SN12C) | GI50 (BT-549) | GI50 (TK-10) | GI50 (SR) | GI50 (UACC-62) | GI50 (KM12) | GI50 (U-251) | GI50 (MCF7) | GI50 (NCI/ADR-RES) | GI50 (MDA-MB-435) | GI50 (HCC 2998) | GI50 (EKVX) | GI50 (HOP-92) | GI50 (A549) | GI50 (NCI-H522)
O=C(SCc1cccc2ccccc12)c1ccc(Cl)cc1 | 81.7 µM (inactive) | > 100 µM (inactive) | > 100 µM (inactive) | > 100 µM (inactive) | > 100 µM (inactive) | > 100 µM (inactive) | > 100 µM (inactive) | > 100 µM (inactive) | 39.3 µM (inactive) | > 100 µM (inactive) | > 100 µM (inactive) | > 100 µM (inactive) | > 100 µM (inactive) | > 100 µM (inactive) | 97.1 µM (inactive) | > 100 µM (inactive) | 80 µM (inactive) | 18.8 µM (inactive) | > 100 µM (inactive) | 45.8 µM (inactive)
O=C(OCc1ccccc1)c1ccc(NCc2cc(O)ccc2O)cc1 | 1.51 µM (inactive) | 1.39 µM (inactive) | 1.43 µM (inactive) | 1.67 µM (inactive) | 6.12 µM (inactive) | 1.38 µM (inactive) | 0.713 µM (active) | 1.95 µM (inactive) | 0.247 µM (active) | 1.56 µM (inactive) | 1.52 µM (inactive) | 1.29 µM (inactive) | 2.01 µM (inactive) | 1.47 µM (inactive) | 1.58 µM (inactive) | 2.15 µM (inactive) | 1.75 µM (inactive) | 0.867 µM (active) | 3.9 µM (inactive) | 0.35 µM (active)
N/N=C(\C(=O)Nc1ccc([N+](=O)[O-])cc1)C(C1=Nc2cc([N+](=O)[O-])ccc2NC1)[N+](=O)[O-] (stereo not given) | 75.7 µM (inactive) | > 100 µM (inactive) | 43.1 µM (inactive) | 91.4 µM (inactive) | > 100 µM (inactive) | > 100 µM (inactive) | > 100 µM (inactive) | > 100 µM (inactive) | > 100 µM (inactive) | > 100 µM (inactive) | 32 µM (inactive) | > 100 µM (inactive) | 44.3 µM (inactive) | > 100 µM (inactive) | 88.3 µM (inactive) | > 100 µM (inactive) | > 100 µM (inactive) | > 100 µM (inactive) | 55.8 µM (inactive) | 25.3 µM (inactive)
COc1cc2c(C)cc(O)cc2c2cc(O)c(C)cc12 | 10.1 µM (inactive) | 11.3 µM (inactive) | 12.4 µM (inactive) | 10.2 µM (inactive) | 12.9 µM (inactive) | 9.84 µM (inactive) | 12.7 µM (inactive) | 13.3 µM (inactive) | 1.53 µM (inactive) | 12 µM (inactive) | 5.24 µM (inactive) | 11.2 µM (inactive) | 10.4 µM (inactive) | 13.5 µM (inactive) | 9.75 µM (inactive) | 13.5 µM (inactive) | 11.7 µM (inactive) | 12 µM (inactive) | 12.9 µM (inactive) | 13.7 µM (inactive)
CC1OC(OC2C(Oc3cc(O)c4c(c3)O[C@H](c3ccc(O)cc3)CC4=O)OC(CO)C(O)C2O)C(O)C(O)C1O (stereo not given in full) | > 100 µM (inactive) | > 100 µM (inactive) | > 100 µM (inactive) | > 100 µM (inactive) | > 100 µM (inactive) | > 100 µM (inactive) | > 100 µM (inactive) | > 100 µM (inactive) | > 100 µM (inactive) | > 100 µM (inactive) | > 100 µM (inactive) | > 100 µM (inactive) | > 100 µM (inactive) | > 100 µM (inactive) | > 100 µM (inactive) | > 100 µM (inactive) | > 100 µM (inactive) | > 100 µM (inactive) | > 100 µM (inactive) | > 100 µM (inactive)
CC1(C)C2CCC1C(=O)[C@@]1(C=CC(=O)CC1)C2 (stereo not given in full) | > 100 µM (inactive) | > 100 µM (inactive) | > 100 µM (inactive) | > 100 µM (inactive) | > 100 µM (inactive) | > 100 µM (inactive) | > 100 µM (inactive) | > 100 µM (inactive) | > 100 µM (inactive) | > 100 µM (inactive) | > 100 µM (inactive) | > 100 µM (inactive) | > 100 µM (inactive) | > 100 µM (inactive) | > 100 µM (inactive) | > 100 µM (inactive) | > 100 µM (inactive) | > 100 µM (inactive) | > 100 µM (inactive) | > 100 µM (inactive)
Cc1nn(C(=O)c2ccc(Cl)cc2)c2c1C(c1ccccc1O)SC(=N)N2 (stereo not given) | > 10 µM (inactive) | > 10 µM (inactive) | > 10 µM (inactive) | > 10 µM (inactive) | > 10 µM (inactive) | > 10 µM (inactive) | > 10 µM (inactive) | > 10 µM (inactive) | > 10 µM (inactive) | > 10 µM (inactive) | > 10 µM (inactive) | > 10 µM (inactive) | > 10 µM (inactive) | > 10 µM (inactive) | > 10 µM (inactive) | > 10 µM (inactive) | > 10 µM (inactive) | > 10 µM (inactive) | > 10 µM (inactive) | > 10 µM (inactive)
Cc1nn(C(=O)c2ccncc2)c2c1C(c1cccc([N+](=O)[O-])c1)SC(=N)N2 (stereo not given) | > 10 µM (inactive) | > 10 µM (inactive) | > 10 µM (inactive) | > 10 µM (inactive) | > 10 µM (inactive) | > 10 µM (inactive) | > 10 µM (inactive) | > 10 µM (inactive) | > 10 µM (inactive) | > 10 µM (inactive) | > 10 µM (inactive) | > 10 µM (inactive) | > 10 µM (inactive) | > 10 µM (inactive) | > 10 µM (inactive) | > 10 µM (inactive) | > 10 µM (inactive) | > 10 µM (inactive) | > 10 µM (inactive) | > 10 µM (inactive)
COc1cc2cc3c4cc(OC)c(OC)cc4cc[n+]3c(C)c2cc1OC.O=C([O-])CS(=O)(=O)O | 26.8 µM (inactive) | 17.7 µM (inactive) | > 100 µM (inactive) | 72.8 µM (inactive) | > 100 µM (inactive) | 3.27 µM (inactive) | 33.5 µM (inactive) | > 100 µM (inactive) | > 100 µM (inactive) | 65.9 µM (inactive) | > 100 µM (inactive) | 8.69 µM (inactive) | 72.8 µM (inactive) | > 100 µM (inactive) | 42.3 µM (inactive) | > 100 µM (inactive) | > 100 µM (inactive) | > 100 µM (inactive) | > 100 µM (inactive) | 4.88 µM (inactive)
C[C@H](OC(=O)/C=C/c1ccc(O)c(O)c1)[C@H](C)OC(=O)/C=C/c1ccc(O)c(O)c1 | 4.41 µM (inactive) | 5.09 µM (inactive) | 6.11 µM (inactive) | 3.93 µM (inactive) | 6.27 µM (inactive) | 11.5 µM (inactive) | 10.4 µM (inactive) | 10 µM (inactive) | 8.18 µM (inactive) | 2.93 µM (inactive) | 5.25 µM (inactive) | 10.8 µM (inactive) | 6.28 µM (inactive) | 12.2 µM (inactive) | 4.84 µM (inactive) | 11.5 µM (inactive) | 14.7 µM (inactive) | 15 µM (inactive) | 7.94 µM (inactive) | 6.98 µM (inactive)
